Data: PubChem BioAssay AID2060601 (Molecular Pharmacology Branch, DTP, NCI, 2025)
Each block holds one compound with its values, some of them ahead of it.

Tested on: 874868-142-R-J2-PDC complex spheroids, growth % test/control
Assay: Anticancer human tumor 874868-142-R-J2-PDC patient-derived head and neck squamous carcinoma cell line growth inhibition [CLK]
Details: for IC50: curve of first compound; for viability, T/C: stronger effect = lower value
How it was run: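 Patient-derived tumor cells grown as complex spheroids with HUVEC endothelial cells and mesenchymal stem cells, treated with drug combinations. Concentrations descend in half-log steps from near clinical Cmax, or from 10 microM if Cmax unknown.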

[1] = second compound 0.0316 µM, first compound 0.0316 µM
[2] = second compound 0.0316 µM, first compound 0.1 µM
[3] = second compound 0.1 µM, first compound 0.0316 µM
[4] = second compound 0.1 µM, first compound 0.1 µM
[5] = second compound 0.316 µM, first compound 0.0316 µM
[6] = second compound 0.316 µM, first compound 0.1 µM
[7] = second compound 1 µM, first compound 0.0316 µM
[8] = second compound 1 µM, first compound 0.1 µM
[9] = second compound 3.16 µM, first compound 0.0316 µM
[10] = second compound 3.16 µM, first compound 0.1 µM
[11] = second compound 10 µM, first compound 0.0316 µM
[12] = second compound 10 µM, first compound 0.1 µM
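Also: spheroids exposed to the compounds for 7 days.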
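For viability, T/C in this document: 100% = DMSO vehicle control viability.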

IC50 (second compound 0.0316 µM): 4.48 nM | IC50 (second compound 0.1 µM): 4.69 nM | IC50 (second compound 0.316 µM): 4.24 nM | IC50 (second compound 1 µM): < 0.949 nM | IC50 (second compound 3.16 µM): < 0.949 nM | IC50 (second compound 10 µM): < 0.949 nM
SMILES: CC(C)CC(NC(=O)C(Cc1ccccc1)NC(=O)c1cnccn1)B(O)O (stereo unspecified) + CNC(=O)c1ccc(Nc2nc(OC3CCCC3)c3c(-c4ccc5nc(C)oc5c4)c[nH]c3n2)c(OC)c1
viability, T/C (second compound 0.0316 µM, first compound 0.000949 µM): 96.8% | viability, T/C (second compound 0.0316 µM, first compound 0.003 µM): 76.4% | viability, T/C (second compound 0.0316 µM, first compound 0.00949 µM): 0.57% | viability, T/C (second compound 0.0316 µM, first compound 0.03 µM): 0.3% | viability, T/C (second compound 0.0316 µM, first compound 0.0949 µM): 0.21% | viability, T/C (second compound 0.0316 µM, first compound 0.3 µM): 0.23% | viability, T/C (second compound 0.1 µM, first compound 0.000949 µM): 89.5% | viability, T/C (second compound 0.1 µM, first compound 0.003 µM): 80.7% | viability, T/C (second compound 0.1 µM, first compound 0.00949 µM): 1.32% | viability, T/C (second compound 0.1 µM, first compound 0.03 µM): 0.44% | viability, T/C (second compound 0.1 µM, first compound 0.0949 µM): 0.2% | viability, T/C (second compound 0.1 µM, first compound 0.3 µM): 4.13% | viability, T/C (second compound 0.316 µM, first compound 0.000949 µM): 66.8% | viability, T/C (second compound 0.316 µM, first compound 0.003 µM): 70.8% | viability, T/C (second compound 0.316 µM, first compound 0.00949 µM): 6.3% | viability, T/C (second compound 0.316 µM, first compound 0.03 µM): 0.22% | viability, T/C (second compound 0.316 µM, first compound 0.0949 µM): 0.26% | viability, T/C (second compound 0.316 µM, first compound 0.3 µM): 5.41% | viability, T/C (second compound 1 µM, first compound 0.000949 µM): 47.7% | viability, T/C (second compound 1 µM, first compound 0.003 µM): 31.9% | viability, T/C (second compound 1 µM, first compound 0.00949 µM): 0.47% | viability, T/C (second compound 1 µM, first compound 0.03 µM): 0.24% | viability, T/C (second compound 1 µM, first compound 0.0949 µM): 5.77% | viability, T/C (second compound 1 µM, first compound 0.3 µM): 17.3% | viability, T/C (second compound 3.16 µM, first compound 0.000949 µM): 45.3% | viability, T/C (second compound 3.16 µM, first compound 0.003 µM): 21.6% | viability, T/C (second compound 3.16 µM, first compound 0.00949 µM): 0.47% | viability, T/C (second compound 3.16 µM, first compound 0.03 µM): 0.19% | viability, T/C (second compound 3.16 µM, first compound 0.0949 µM): 7.41% | viability, T/C (second compound 3.16 µM, first compound 0.3 µM): 10.4% | viability, T/C (second compound 10 µM, first compound 0.000949 µM): 38.6% | viability, T/C (second compound 10 µM, first compound 0.003 µM): 20% | viability, T/C (second compound 10 µM, first compound 0.00949 µM): 3.06% | viability, T/C (second compound 10 µM, first compound 0.03 µM): 0.36% | viability, T/C (second compound 10 µM, first compound 0.0949 µM): 3.69% | viability, T/C (second compound 10 µM, first compound 0.3 µM): 6.49%

IC50 (second compound 0.0316 µM): > 100 nM | IC50 (second compound 0.1 µM): > 100 nM | IC50 (second compound 0.316 µM): > 100 nM | IC50 (second compound 1 µM): < 0.316 nM | IC50 (second compound 3.16 µM): < 0.316 nM | IC50 (second compound 10 µM): < 0.316 nM
SMILES: Cn1ncnc1[C@H]1c2n[nH]c(=O)c3cc(F)cc(c23)N[C@@H]1c1ccc(F)cc1 + CNC(=O)c1ccc(Nc2nc(OC3CCCC3)c3c(-c4ccc5nc(C)oc5c4)c[nH]c3n2)c(OC)c1
viability, T/C (second compound 0.0316 µM, first compound 0.000316 µM): 97.6% | viability, T/C (second compound 0.0316 µM, first compound 0.001 µM): 92.7% | viability, T/C (second compound 0.0316 µM, first compound 0.00316 µM): 102% | viability, T/C (second compound 0.0316 µM, first compound 0.01 µM): 94.6% | viability, T/C [1]: 85.1% | viability, T/C [2]: 73.7% | viability, T/C (second compound 0.1 µM, first compound 0.000316 µM): 85% | viability, T/C (second compound 0.1 µM, first compound 0.001 µM): 68.8% | viability, T/C (second compound 0.1 µM, first compound 0.00316 µM): 90.1% | viability, T/C (second compound 0.1 µM, first compound 0.01 µM): 79.2% | viability, T/C [3]: 73.5% | viability, T/C [4]: 66.6% | viability, T/C (second compound 0.316 µM, first compound 0.000316 µM): 61.4% | viability, T/C (second compound 0.316 µM, first compound 0.001 µM): 54.3% | viability, T/C (second compound 0.316 µM, first compound 0.00316 µM): 51.5% | viability, T/C (second compound 0.316 µM, first compound 0.01 µM): 56.3% | viability, T/C [5]: 59.7% | viability, T/C [6]: 46.3% | viability, T/C (second compound 1 µM, first compound 0.000316 µM): 42.7% | viability, T/C (second compound 1 µM, first compound 0.001 µM): 50.8% | viability, T/C (second compound 1 µM, first compound 0.00316 µM): 40.6% | viability, T/C (second compound 1 µM, first compound 0.01 µM): 36.9% | viability, T/C [7]: 40.8% | viability, T/C [8]: 40.7% | viability, T/C (second compound 3.16 µM, first compound 0.000316 µM): 44.5% | viability, T/C (second compound 3.16 µM, first compound 0.001 µM): 36.2% | viability, T/C (second compound 3.16 µM, first compound 0.00316 µM): 39.2% | viability, T/C (second compound 3.16 µM, first compound 0.01 µM): 39% | viability, T/C [9]: 44% | viability, T/C [10]: 34% | viability, T/C (second compound 10 µM, first compound 0.000316 µM): 44% | viability, T/C (second compound 10 µM, first compound 0.001 µM): 40.5% | viability, T/C (second compound 10 µM, first compound 0.00316 µM): 39.4% | viability, T/C (second compound 10 µM, first compound 0.01 µM): 39.5% | viability, T/C [11]: 47.6% | viability, T/C [12]: 31%

IC50 (second compound 0.0316 µM): > 10000 nM | IC50 (second compound 0.1 µM): > 10000 nM | IC50 (second compound 0.316 µM): > 10000 nM | IC50 (second compound 1 µM): < 31.6 nM | IC50 (second compound 3.16 µM): < 31.6 nM | IC50 (second compound 10 µM): < 31.6 nM
SMILES: O=C(c1cc(Cc2n[nH]c(=O)c3ccccc23)ccc1F)N1CCN(C(=O)C2CC2)CC1 + CNC(=O)c1ccc(Nc2nc(OC3CCCC3)c3c(-c4ccc5nc(C)oc5c4)c[nH]c3n2)c(OC)c1
viability, T/C [1]: 86.5% | viability, T/C [2]: 90.7% | viability, T/C (second compound 0.0316 µM, first compound 0.316 µM): 115% | viability, T/C (second compound 0.0316 µM, first compound 1 µM): 81.4% | viability, T/C (second compound 0.0316 µM, first compound 3.16 µM): 91.8% | viability, T/C (second compound 0.0316 µM, first compound 10 µM): 75.6% | viability, T/C [3]: 98.9% | viability, T/C [4]: 76.5% | viability, T/C (second compound 0.1 µM, first compound 0.316 µM): 93.7% | viability, T/C (second compound 0.1 µM, first compound 1 µM): 87% | viability, T/C (second compound 0.1 µM, first compound 3.16 µM): 70.7% | viability, T/C (second compound 0.1 µM, first compound 10 µM): 73.4% | viability, T/C [5]: 54% | viability, T/C [6]: 54.5% | viability, T/C (second compound 0.316 µM, first compound 0.316 µM): 60.8% | viability, T/C (second compound 0.316 µM, first compound 1 µM): 45.9% | viability, T/C (second compound 0.316 µM, first compound 3.16 µM): 61% | viability, T/C (second compound 0.316 µM, first compound 10 µM): 55.6% | viability, T/C [7]: 42.2% | viability, T/C [8]: 40.9% | viability, T/C (second compound 1 µM, first compound 0.316 µM): 42.3% | viability, T/C (second compound 1 µM, first compound 1 µM): 41.1% | viability, T/C (second compound 1 µM, first compound 3.16 µM): 39.7% | viability, T/C (second compound 1 µM, first compound 10 µM): 41.4% | viability, T/C [9]: 41.4% | viability, T/C [10]: 48.8% | viability, T/C (second compound 3.16 µM, first compound 0.316 µM): 48.8% | viability, T/C (second compound 3.16 µM, first compound 1 µM): 41% | viability, T/C (second compound 3.16 µM, first compound 3.16 µM): 50.3% | viability, T/C (second compound 3.16 µM, first compound 10 µM): 46.2% | viability, T/C [11]: 38.3% | viability, T/C [12]: 48.4% | viability, T/C (second compound 10 µM, first compound 0.316 µM): 42.7% | viability, T/C (second compound 10 µM, first compound 1 µM): 41.8% | viability, T/C (second compound 10 µM, first compound 3.16 µM): 43.3% | viability, T/C (second compound 10 µM, first compound 10 µM): 42.2%
